The source of these data is patent publication US11964949B2, “Substituted phenyloxazolidinones for antimicrobial therapy” (priority 2015, dated 2024).

One experiment concerns tuberculosis. To be noted: cited from earlier work.
Experiment [1] concerns Mycobacterium tuberculosis H37Rv. In words: In vitro assay for antimicrobial susceptibility (microplate Alamar blue, MIC). The experiment is classed as cell-based. Particulars: Mycobacterium tuberculosis, read-out: MIC (μg/mL) against H37Rv.
The test system of experiment [2] is mitochondrial protein synthesis (MPS) in H9C2 cells. In words: In vitro assay for MPS inhibition (COX-1 / SDH-A ELISA in H9C2 cells). Particulars: Rattus norvegicus, read-out: IC50 (μM) MPS inhibition. The experiment is classed as cell-based, rat. (In an ELISA, binding on a coated surface is turned into a signal by an enzyme label.)
The mark [3] stands for this setting: M. tuberculosis H37Rv, 7H9 broth, Alamar blue.
The mark [4] stands for this setting: 120 h, H9C2 cells, 5 days incubation.

In brackets after ≈: the same amount, converted by molar mass. Where two headings read alike, the source gives them in different places. Where only a bound is given, the exact number is not on record here.

`CC(=O)NC[C@H]1CN(c2ccc(N3CCOCC3)c(F)c2)C(=O)O1` [Linezolid]: in the experiment with tuberculosis, the “activity in murine models of tuberculosis” value was “only modest activity”.

Consider `COC(=O)NC[C@H]1CN(c2ccc(N3[C@@H]4CC[C@H]3CSC4)c(F)c2)C(=O)O1` [OTB-237, Methyl (((S)-3-(4-((1R,5S)-3-thia-8-azabicyclo[3.2.1]octan-8-yl)-3-fluorophenyl)-2-Oxo-oxazolidin-5-yl)methyl)carbamate], for which the MIC in experiment [1] (H37RV) lay in the range of 0.03 to 0.11 µg/mL (≈ 0.0759 to 0.278 µM). In experiment [2] (H9c2, 120 h), the IC50 – broadly, the concentration that gives 50% inhibition – lay within 15 to 23 µM.

Consider `CC(=O)NC[C@H]1CN(c2ccc(N3CC4(CSC4)C3)c(F)c2)C(=O)O1` [OTB-261, (S)—N-((3-(3-Fluoro-4-(2-thia-6-azaspiro[3.3]heptan-6-yl)phenyl)-2-oxo-oxazolidin-5-yl)methyl)acetamide], for which the MIC in experiment [1] (setting [3]) amounted to 0.12 µg/mL (≈ 0.328 µM). The IC50 in experiment [2] (setting [4]) was 2 µM.

Regarding `CCCC(=O)NC[C@H]1CN(c2cc(F)c(N3CC4CCC(C3)O4)c(F)c2)C(=O)O1` [OBD-254], the MIC in experiment [1] (setting [3]) amounted to 0.73 µg/mL (≈ 1.78 µM). Also, the IC50 in experiment [2] (setting [4]) was 36 µM.

Take `CNC(=O)OC[C@H]1CN(c2cc(F)c(N3CC4(C3)C[S+]([O-])C4)c(F)c2)C(=O)O1` [OTB-516-4B]: the MIC in experiment [1] (H37RV) turned out to be 4.7 µg/mL (≈ 11.3 µM). Besides, the IC50 in experiment [2] (setting [4]) was over 100 µM.

For the compound `O=C(NC[C@H]1CN(c2cc(F)c(N3[C@@H]4CC[C@H]3CSC4)c(F)c2)C(=O)O1)C1CC1` [OTB-508, N—(((S)-3-(4-((1R,5S)-3-Thia-8-aza-bicyclo[3.2.1]octan-8-yl)-3,5-difluorophenyl)-2-oxo-oxazolidin-5-yl)methyl)cyclopropanecarboxamide], the MIC in experiment [1] (H37RV) turned out to be 0.2 µg/mL (≈ 0.472 µM). In experiment [2] (H9c2, 120 h), the IC50 was found to be 8 µM.

As for `O=C(NC[C@H]1CN(c2cc(F)c(N3[C@@H]4CC[C@H]3CSC4)c(F)c2)C(=O)O1)C1CCC1` [OTB-509, N—(((S)-3-(4-((1R,5S)-3-Thia-8-aza-bicyclo[3.2.1]octan-8-yl)-3,5-difluorophenyl)-2-oxo-oxazolidin-5-yl)methyl)cyclobutanecarboxamide], the MIC in experiment [1] (H37RV) stood at 0.04 µg/mL (≈ 0.0914 µM). Also, the IC50 in experiment [2] (H9c2, 120 h) was 5 µM.

On to `O=C(NC[C@H]1CN(c2ccc(N3CCC[S+]([O-])CC3)c(F)c2)C(=O)O1)c1ccco1` (stereo partly drawn) [OTB-127, N-[[(5S)-3-(3-Fluoro-4-(1-oxido-1,4-thiazepan-4-yl)phenyl)-2-oxo-oxazolidin-5-yl]methyl]furan-2-carboxamide], for which the MIC in experiment [1] (setting [3]) was 1.23 µg/mL (≈ 2.83 µM). Besides, the IC50 in experiment [2] (setting [4]) was 10.2 µM.

Take `O=C1O[C@@H](Cn2ccnn2)CN1c1ccc(N2CCCSCC2)c(F)c1` [OTB-107, (R)-5-[(1H-1,2,3-Triazol-1-yl)methyl]-3-[3-fluoro-4-(1,4-thiazepan-4-yl)phenyl]oxazolidin-2-one]: in experiment [1] (setting [3]), the MIC turned out to be 0.03 µg/mL (≈ 0.0795 µM). Also, the IC50 in experiment [2] (setting [4]) is 84.9 µM.

For the compound `O=C1O[C@@H](Cn2ccnn2)CN1c1cc(F)c(N2C3CCC2C[S+]([O-])C3)c(F)c1` (some centres unmarked) [OTB-517], the MIC in experiment [1] (H37RV) was 1.3 to 2 µg/mL (≈ 3.07 to 4.72 µM). Moreover, in experiment [2] (H9c2, 120 h), the IC50 lay in the range of 30 to 55 µM.

On to `O=C1O[C@@H](Cn2cncn2)CN1c1ccc(N2CCC[S+]([O-])CC2)c(F)c1` (stereo partly drawn) [OTB-140, (5R)-5-((1H-1,2,4-Triazol-1-yl)methyl)-3-(3-fluoro-4-(1-oxido-1,4-thiazepan-4-yl)phenyl)oxazolidin-2-one], for which, in experiment [1] (setting [3]), the MIC worked out at 3.69 µg/mL (≈ 9.39 µM). Further, the IC50 in experiment [2] (setting [4]) is over 100 µM.

Regarding `CCCC(=O)NC[C@H]1CN(c2ccc(N3CCCS(=O)(=O)CC3)c(F)c2)C(=O)O1` [OBD-007, (S)—N-((3-(4-(1,1-Dioxido-1,4-thiazepan-4-yl)-3-fluorophenyl)-2-oxooxazolidin-5-yl)methyl)butyramide], the MIC in experiment [1] (setting [3]) came out at 0.46 µg/mL (≈ 1.08 µM). The half-maximal inhibitory concentration (IC50) in experiment [2] (setting [4]) was 19.8 µM.

Take `O=C(NC[C@H]1CN(c2cc(F)c(N3CCCSCC3)c(F)c2)C(=O)O1)C1CC1` [OTB-408]: the MIC in experiment [1] (setting [3]) amounted to 0.342 µg/mL (≈ 0.831 µM). The IC50 in experiment [2] (setting [4]) was 3.61 µM.

As for `COC(=O)NC[C@H]1CN(c2cc(F)c(N3CC4(C3)C[S+]([O-])C4)c(F)c2)C(=O)O1` [OTB-253], the MIC in experiment [1] (setting [3]) turned out to be 0.7 µg/mL (≈ 1.69 µM). The IC50 in experiment [2] (setting [4]) worked out at 10 µM.

In the case of `O=C(NC[C@H]1CN(c2cc(F)c(N3CC4(COC4)C3)c(F)c2)C(=O)O1)C1CC1` [OTB-233, (S)—N-((3-(3,5-Difluoro-4-(2-oxa-6-azaspiro[3.3]heptan-6-yl)phenyl)-2-oxo-oxazolidin-5-yl)methyl)cyclopropanecarboxamide], the MIC in experiment [1] (setting [3]) fell in the range of 0.36 to 1 µg/mL (≈ 0.915 to 2.54 µM). Also, in experiment [2] (setting [4]), the IC50 was in the range of 8.4 to 50 µM.

In the case of `O=C(NC[C@H]1CN(c2cc(F)c(N3CCCSCC3)c(F)c2)C(=O)O1)C1CCC1` [OTB-409], the MIC in experiment [1] (setting [3]) came to 0.477 µg/mL (≈ 1.12 µM). For the same compound, in experiment [2] (setting [4]), the IC50 amounted to 8.51 µM.

For the compound `CCCCS(=O)(=O)NC[C@H]1CN(c2ccc(N3CCCSCCC3)c(F)c2)C(=O)O1` [OTB-120, (R)—N-[[3-(3-Fluoro-4-(1,5-thiazocan-5-yl)phenyl)-2-oxo-oxazolidin-5-yl]methyl]butane-1-sulfonamide], the MIC in experiment [1] (setting [3]) came out at 3.88 µg/mL (≈ 8.44 µM). In addition, the IC50 in experiment [2] (setting [4]) amounted to 7.27 µM.

For `O=C1O[C@@H](CO)CN1c1cc(F)c(N2CC3CCC(C2)O3)c(F)c1` [OBD-114, 3-(4-(8-oxa-3-aza-bicyclo[3.2.1]octan-3-yl)-3,5-difluorophenyl)-5-(hydroxymethyl)oxazolidin-2-one], the MIC in experiment [1] (setting [3]) was found to be 1.7 µg/mL (≈ 5 µM). Besides, the IC50 in experiment [2] (setting [4]) was over 100 µM.

In the case of `CC(=O)NC[C@H]1CN(c2ccc(N3[C@@H]4CC[C@H]3CSC4)c(F)c2)C(=O)O1` [OTB-502, N—(((S)-3-(4-((1R,5S)-3-Thia-8-azabicyclo[3.2.1]octan-8-yl)-3-fluorophenyl)-2-oxooxazolidin-5-yl)methyl)acetamide], the MIC in experiment [1] (H37RV) is 0.246 µg/mL (≈ 0.648 µM). Further, in experiment [2] (H9c2, 120 h), the IC50 turned out to be 13.6 µM.

Regarding `O=C(NC[C@H]1CN(c2ccc(N3CCCSCCC3)c(F)c2)C(=O)O1)c1ccco1` [OTB-117, (S)—N-[[3-(3-Fluoro-4-(1,5-thiazocan-5-yl)phenyl)-2-oxo-oxazolidin-5-yl]methyl]furan-2-carboxamide], the MIC in experiment [1] (setting [3]) is 0.665 µg/mL (≈ 1.53 µM). In addition, the IC50 in experiment [2] (setting [4]) came to 56.3 µM.

Turning to `O=C1O[C@@H](CO)CN1c1ccc(N2CC3CCC(C2)O3)c(F)c1` [OBD-112, 3-(4-(8-oxa-3-aza-bicyclo[3.2.1]octan-3-yl)-3-fluorophenyl)-5-(hydroxymethyl)oxazolidin-2-one], the MIC in experiment [1] (setting [3]) came to 3.5 µg/mL (≈ 10.9 µM). Moreover, the IC50 in experiment [2] (setting [4]) was over 100 µM.

Regarding `O=C(NC[C@H]1CN(c2cc(F)c(N3CC4(C3)C[S+]([O-])C4)c(F)c2)C(=O)O1)C1CCC1` [OTB-251], in experiment [1] (setting [3]), the MIC is 0.9 µg/mL (≈ 2.05 µM). The IC50 in experiment [2] (setting [4]) stood at 24 µM.

Consider `CC(=O)NC[C@H]1CN(c2ccc(N3CC4CCC(C3)O4)c(F)c2)C(=O)O1` [OBD-110], for which the MIC in experiment [1] (setting [3]) came out at 0.45 µg/mL (≈ 1.24 µM). The IC50 in experiment [2] (setting [4]) turned out to be 7 µM.

In the case of `NC[C@H]1CN(c2cc(F)c(N3C4CCC3CSC4)c(F)c2)C(=O)O1` [OBD-083, (5S)-3-(4-(3-thia-8-aza-bicyclo[3.2.1]octan-8-yl)-3,5-difluorophenyl)-5-(aminomethyl)oxazolidin-2-one], the MIC in experiment [1] (H37RV) turned out to be 0.05 µg/mL (≈ 0.141 µM). Moreover, the IC50 in experiment [2] (H9c2, 120 h) turned out to be 20 µM.

With `O=C1O[C@@H](Cn2ccnn2)CN1c1ccc(N2CCC[S+]([O-])CC2)c(F)c1` (stereo partly drawn) [OTB-137, (5R)-5-((1H-1,2,3-Triazol-1-yl)methyl)-3-(3-fluoro-4-(1-oxido-1,4-thiazepan-4-yl)phenyl)oxazolidin-2-one], the MIC in experiment [1] (setting [3]) was found to be 0.277 µg/mL (≈ 0.704 µM). For the same compound, the IC50 in experiment [2] (setting [4]) is 7.64 µM.

Turning to `COC(=O)NC[C@H]1CN(c2cc(F)c(N3C4CCC3C[S+]([O-])C4)c(F)c2)C(=O)O1` (some centres unmarked) [OTB-519], the MIC in experiment [1] (H37RV) stood at 0.9 µg/mL (≈ 2.1 µM). Further, the IC50 in experiment [2] (H9c2, 120 h) worked out at 51 µM.

In the case of `O=C1O[C@@H](Cn2nccn2)CN1c1ccc(N2CCC[S+]([O-])CC2)c(F)c1` (stereo partly drawn) [OTB-138, (5R)-5-((2H-1,2,3-Triazol-2-yl)methyl)-3-(3-fluoro-4-(1-oxido-1,4-thiazepan-4-yl)phenyl)oxazolidin-2-one], the MIC in experiment [1] (setting [3]) came out at 7.57 µg/mL (≈ 19.2 µM). For the same compound, the IC50 in experiment [2] (setting [4]) was over 100 µM.

`NC[C@H]1CN(c2ccc(N3CC4(COC4)C3)c(F)c2)C(=O)O1` [OBD-057]: the MIC in experiment [1] (setting [3]) was 0.4 µg/mL (≈ 1.3 µM). Moreover, the IC50 in experiment [2] (setting [4]) is 67 µM.

As for `O=C(NC[C@H]1CN(c2ccc(N3CCCSCC3)c(F)c2)C(=O)O1)c1ccco1` [OTB-111, (S)—N-[(3-[3-Fluoro-4-(1,4-thiazepan-4-yl)phenyl]-2-oxo-oxazolidin-5-yl)methyl]furan-2-carboxamide], the MIC in experiment [1] (setting [3]) was 0.125 µg/mL (≈ 0.298 µM). For the same compound, the IC50 in experiment [2] (setting [4]) is 60.3 µM.

As to `CC(=O)NC[C@H]1CN(c2cc(F)c(N3[C@@H]4CC[C@H]3CSC4)c(F)c2)C(=O)O1` [OTB-510, N—(((S)-3-(4-((1R,5S)-3-Thia-8-aza-bicyclo[3.2.1]octan-8-yl)-3,5-difluorophenyl)-2-oxo-oxazolidin-5-yl)methyl)acetamide], the MIC in experiment [1] (H37RV) lay in the range of 0.03 to 0.22 µg/mL (≈ 0.0755 to 0.554 µM). Moreover, the IC50 in experiment [2] (H9c2, 120 h) lay within 3 to 7 µM.
